Measured values published in patent US20220073536A1 (Rigel Pharmaceuticals, Inc., priority 2003, published 2022).

Legend:
[1] = system: cultured human mast cells (CHMC); assay: CHMC low cell density IgE activation: tryptase assay; type: cell-based; conditions: low cell density CHMC, IgE activation, tryptase release
Outline: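 CHMC at 1000–1500 cells/well were preincubated 1 hr at 37° C., stimulated with anti-IgE for 30 minutes at 37° C., then pelleted. Supernatant tryptase was measured with a fluorogenic substrate after 30 min at room temperature, against un-stimulated control wells.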

[2] = system: cultured human mast cells (CHMC); assay: CHMC low cell density ionomycin activation: tryptase assay; type: cell-based; conditions: low cell density CHMC, tryptase release, 3 point, read-out: LD Tryptase, CHMC, Iono, 3 pt
[3] = 3 point, read-out: LD Tryptase, CHMC, IgE, 3 pt
[4] = 8 point, read-out: LD Tryptase, CHMC, IgE, 8 pt
[5] = Homo sapiens, Mast cell, 3 point, read-out: LD Tryptase, CHMC, IgE, 3 pt
[6] = Homo sapiens, Mast cell, 8 point, read-out: LD Tryptase, CHMC, IgE, 8 pt

IC50 [1, 3]	IC50 [1, 4]	IC50 [2]	IC50 [1, 5]	IC50 ([2]; Homo sapiens, Mast cell)	IC50 [1, 6]	Compound
< 10 µM	< 10 µM	< 10 µM				CNC(=O)COc1ccc(Nc2nc(Nc3ccc4[nH]ccc4c3)ncc2F)cc1Cl [Compound 625, N4-[3-Chloro-4-(N-methylamino)carbonylmethyleneoxyphenyl]-5-fluoro-N2-(indol-5-yl)-2,4-pyrimidinediamine]
			> 10 µM	< 10 µM		Cc1cc(N(C)c2nc(Cl)ncc2F)cc(C)c1Cl [Compound 626]
> 10 µM		> 10 µM				CN(c1ccc2c(c1)OC(F)(F)C(F)(F)O2)c1nc(Cl)ncc1F [Compound 627]
> 10 µM		> 10 µM				CN(c1ccc2c(c1)OC(F)(F)O2)c1nc(Cl)ncc1F [Compound 628]
			< 10 µM	> 10 µM	< 10 µM	Fc1cnc(Nc2ccc3cc[nH]c3c2)nc1Nc1ccc(Cl)c(C(F)(F)F)c1 [Compound 629, N4-(4-Chloro-3-trifluoromethylphenyl)-5-fluoro-N2-(indol-6-yl)-2,4-pyrimidinediamine]
			< 10 µM	> 10 µM	< 10 µM	COc1cc(Nc2nc(Nc3ccc4cc[nH]c4c3)ncc2F)ccc1Cl [Compound 630, N4-(4-Chloro-3-methoxyphenyl)-5-fluoro-N2-(indol-6-yl)-2,4-pyrimidinediamine]
< 10 µM	< 10 µM	< 10 µM				COC(=O)COc1ccc(Nc2nc(Nc3ccc4cc[nH]c4c3)ncc2F)cc1Cl [Compound 631, N4-(3-Chloro-4-methoxycarbonylmethyleneoxyphenyl)-5-fluoro-N2-(indol-6-yl)-2,4-pyrimidinediamine]
< 10 µM	< 10 µM	> 10 µM				OCCOc1ccc(Nc2nc(Nc3ccc4cc[nH]c4c3)ncc2F)cc1Cl [Compound 632, N4-[3-Chloro-4-(2-hydroxyethyleneoxy)phenyl]-5-fluoro-N2-(indol-6-yl)-2,4-pyrimidinediamine]
< 10 µM		> 10 µM				Fc1cnc(Nc2cccc(-c3ncco3)c2)nc1Nc1ccc2c(c1)OC(F)(F)C(F)(F)O2 [Compound 633]
> 10 µM	< 10 µM	> 10 µM				CN(c1ccc2c(c1)OC(F)(F)C(F)(F)O2)c1nc(Nc2cccc(-c3ncco3)c2)ncc1F [Compound 634]
< 10 µM	< 10 µM	< 10 µM				CNC(=O)COc1c(C)cc(Nc2ncc(F)c(N(C)c3ccc4c(c3)OCCO4)n2)cc1C [Compound 635, N2-[3,5-Dimethyl-4-(N-methylamino)carbonylmethyleneoxyphenyl]-N4-(3,4-ethylenedioxyphenyl)-5-fluoro-N4-methyl-2,4-pyrimidinediamine]
< 10 µM	< 10 µM	< 10 µM				CNC(=O)COc1c(C)cc(Nc2ncc(F)c(N(C)c3ccc4c(c3)OC(F)(F)C(F)(F)O4)n2)cc1C [Compound 636, N2-[3,5-Dimethyl-4-(N-methylamino)carbonylmethyleneoxyphenyl]-5-fluoro-N4-methyl-N4-[3,4-(tetrafluoroethylenedioxy)phenyl]-2,4-pyrimidinediamine]
< 10 µM		> 10 µM				CNC(=O)COc1c(C)cc(Nc2ncc(F)c(Nc3ccc4c(c3)OC(F)(F)C(F)(F)O4)n2)cc1C [Compound 637, N2-[3,5-Dimethyl-4-(N-methylamino)carbonylmethyleneoxyphenyl]-5-fluoro-N4-[3,4-(tetrafluoroethylenedioxy)phenyl]-2,4-pyrimidinediamine]
< 10 µM	< 10 µM	< 10 µM				CNC(=O)COc1c(C)cc(Nc2ncc(F)c(N(C)c3cc(OC)cc(OC)c3)n2)cc1C [Compound 638, N2-[3,5-Dimethyl-4-(N-methylamino)carbonylmethyleneoxyphenyl]-N4-(3,5-dimethoxyphenyl)-5-fluoro-N4-methyl-2,4-pyrimidinediamine]
< 10 µM	< 10 µM	> 10 µM				COC(=O)Cn1ccc2ccc(Nc3ncc(F)c(Nc4ccc5c(c4)NC(=O)C(C)(C)O5)n3)cc21 [Compound 639, N4-(2,2-Dimethyl-3-oxo-4H-benz[1,4]oxazin-6-yl)-5-fluoro-N2-[1-(methoxycarbonylmethylene)indol-6-yl]-2,4-pyrimidinediamine]
< 10 µM	< 10 µM	> 10 µM				CNC(=O)COc1ccc(Nc2nc(Nc3ccc4ccn(CC(=O)OC)c4c3)ncc2F)cc1Cl [Compound 640, N4-[3-Chloro-4-(N-methylamino)carbonylmethyleneoxyphenyl]-5-fluoro-N2-[1-(methoxycarbonylmethylene)indol-6-yl]-2,4-pyrimidinediamine]
< 10 µM	< 10 µM	< 10 µM				COC(=O)Cn1ccc2ccc(Nc3ncc(F)c(Nc4ccc(Cl)c(OC)c4)n3)cc21 [Compound 641, N4-(4-Chloro-3-methoxyphenyl)-5-fluoro-N2-[1-(methoxycarbonylmethylene)indol-6-yl]-2,4-pyrimidinediamine]
< 10 µM	< 10 µM	> 10 µM				COC(=O)Cn1ccc2ccc(Nc3ncc(F)c(Nc4ccc5c(c4)OCCO5)n3)cc21 [Compound 642, N4-(3,4-Ethylenedioxyphenyl)-5-fluoro-N2-[1-(methoxycarbonylmethylene)indol-6-yl]-2,4-pyrimidinediamine]
< 10 µM	< 10 µM	> 10 µM				COC(=O)Cn1ccc2cc(Nc3ncc(F)c(Nc4ccc5c(c4)NC(=O)C(C)(C)O5)n3)ccc21 [Compound 643, N4-(2,2-Dimethyl-3-oxo-4H-benz[1,4]oxazin-6-yl)-5-fluoro-N2-[1-(methoxycarbonylmethylene)indol-5-yl]-2,4-pyrimidinediamine]
< 10 µM	< 10 µM	> 10 µM				CNC(=O)COc1ccc(Nc2nc(Nc3ccc4c(ccn4CC(=O)OC)c3)ncc2F)cc1Cl [Compound 644, N4-[3-Chloro-4-(N-methylamino)carbonylmethyleneoxyphenyl]-5-fluoro-N2-[1-(methoxycarbonylmethylene)indol-5-yl]-2,4-pyrimidinediamine]
< 10 µM	< 10 µM	> 10 µM				COC(=O)Cn1ccc2cc(Nc3ncc(F)c(Nc4ccc(OC)c(Cl)c4)n3)ccc21 [Compound 646, N4-(3-Chloro-4-methoxyphenyl)-5-fluoro-N2-[1-(methoxycarbonylmethylene)indol-5-yl]-2,4-pyrimidinediamine]
< 10 µM	< 10 µM	> 10 µM				COC(=O)Cn1ccc2cc(Nc3ncc(F)c(Nc4ccc5c(c4)OCCO5)n3)ccc21 [Compound 647, N4-(3,4-Ethylenedioxyphenyl)-5-fluoro-N2-[1-(methoxycarbonylmethylene)indol-5-yl]-2,4-pyrimidinediamine]
< 10 µM	< 10 µM	> 10 µM				CNC(=O)Cn1ccc2ccc(Nc3ncc(F)c(Nc4ccc5c(c4)OCCO5)n3)cc21 [Compound 649, N4-(3,4-Ethylenedioxyphenyl)-5-fluoro-N2-[1-(N-methylamino)carbonylmethyleneindol-6-yl]-2,4-pyrimidinediamine]
			> 10 µM	> 10 µM		COc1ccc(N(C)c2nc(Cl)ncc2F)cn1 [Compound 657]
			> 10 µM	> 10 µM		CN(c1ccc(Cl)c(C(F)(F)F)c1)c1nc(Cl)ncc1F [Compound 658]
			> 10 µM	> 10 µM		COc1cc(N(C)c2nc(Cl)ncc2F)ccc1Cl [Compound 659]
